Reference: ChEMBL document CHEMBL5579866, “TRPA1 Inhibition Effects by 3-Phenylcoumarin Derivatives” (2024)
Active and inactive are the calls of the source. No cut-off for these calls is given here.

Tests used:
[1] = biological target: Transient receptor potential cation channel subfamily A member 1 (Homo sapiens) (UniProt O75762); test: Agonist activity at human TRPA1; details: filed as agonist
T47D [2] = test: Downregulation of TRPA1 protein expression in human T47D cells after 48 hrs; format: functional, cell-based
[3] = biological target: Transient receptor potential cation channel subfamily A member 1 (Homo sapiens) (UniProt O75762); test: Antagonist activity at AITC induced human TRPA1 expressed in HEK293 cells assessed as intracellular calcium level at 10 to 100 uM preincubated for 30 mins followed by AITC stimulation and measured for 30 sec by Fluo-3AM staining based assay; format: cell-based; details: filed as antagonist, dose 10-100 µM, time 1830.0 sec
T47D [4] = test: Inhibition of human T47D spheroid 3D culture growth size at 1 uM incubated for 120 hrs by CellIQ live-cell analysis; format: functional
T47D [5] = test: Inhibition of human T47D spheroid 3D culture growth size at 100 uM incubated for 5 days by CellIQ live-cell analysis; format: functional; details: 120 h, time 5 day
T47D [6] = test: Inhibition of human T47D spheroid 3D culture growth size at 10 uM incubated for 120 hrs by CellIQ live-cell analysis; format: functional
T47D [7] = test: Inhibition of human T47D spheroid 3D culture growth size at 10 to 100 uM incubated for 12 hrs by CellIQ live-cell analysis; format: functional, cell-based; details: dose 10-100 µM
T47D [8] = test: Inhibition of human T47D spheroid 3D culture growth size at 10 uM incubated for 5 days by CellIQ live-cell analysis; format: functional; details: 120 h, time 5 day

Sequence of Transient receptor potential cation channel subfamily A member 1 (Homo sapiens) (O75762 whole entry): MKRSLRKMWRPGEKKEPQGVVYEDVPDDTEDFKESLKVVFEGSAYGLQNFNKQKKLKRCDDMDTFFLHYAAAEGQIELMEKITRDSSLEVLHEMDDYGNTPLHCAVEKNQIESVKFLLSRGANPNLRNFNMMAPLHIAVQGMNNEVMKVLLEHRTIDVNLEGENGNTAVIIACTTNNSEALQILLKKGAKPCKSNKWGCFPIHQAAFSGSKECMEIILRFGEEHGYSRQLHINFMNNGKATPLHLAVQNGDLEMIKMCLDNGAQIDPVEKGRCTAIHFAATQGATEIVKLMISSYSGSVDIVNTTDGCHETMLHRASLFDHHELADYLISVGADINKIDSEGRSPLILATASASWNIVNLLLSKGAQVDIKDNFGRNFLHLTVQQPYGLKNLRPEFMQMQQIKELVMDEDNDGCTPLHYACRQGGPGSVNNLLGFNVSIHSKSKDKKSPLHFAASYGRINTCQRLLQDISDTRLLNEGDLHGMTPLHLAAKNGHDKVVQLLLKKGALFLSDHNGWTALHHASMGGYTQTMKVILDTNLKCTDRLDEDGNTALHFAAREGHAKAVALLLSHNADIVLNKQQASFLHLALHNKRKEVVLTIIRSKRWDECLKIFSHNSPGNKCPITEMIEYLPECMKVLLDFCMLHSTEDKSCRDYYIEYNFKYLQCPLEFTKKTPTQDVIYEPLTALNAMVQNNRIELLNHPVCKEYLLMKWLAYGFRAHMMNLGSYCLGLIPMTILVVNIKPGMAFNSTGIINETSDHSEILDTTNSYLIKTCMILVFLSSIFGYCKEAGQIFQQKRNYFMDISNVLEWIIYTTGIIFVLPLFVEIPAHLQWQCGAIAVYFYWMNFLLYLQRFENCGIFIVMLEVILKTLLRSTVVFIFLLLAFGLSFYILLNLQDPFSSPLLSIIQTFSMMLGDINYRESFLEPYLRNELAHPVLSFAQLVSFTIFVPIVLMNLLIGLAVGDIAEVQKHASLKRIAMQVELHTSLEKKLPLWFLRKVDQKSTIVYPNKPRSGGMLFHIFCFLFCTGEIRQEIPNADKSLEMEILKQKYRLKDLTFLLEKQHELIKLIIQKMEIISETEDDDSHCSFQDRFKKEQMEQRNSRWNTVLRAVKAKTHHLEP

Activity [1] | Activity [3] | Structure (SMILES) | Activity (T47D [2]) | other results
Active |  | O=c1oc2ccccc2cc1-c1cccc(O)c1 | Active | 
 | Active | O=c1oc2ccccc2cc1-c1ccc(O)cc1 |  | 
Active | Active | O=c1oc2cc(O)ccc2cc1-c1cccc(O)c1 | Active | 

The remaining lines, values behind:

Structure (SMILES) | Activity [1] | Activity [3] | Activity (T47D [2]) | other results
Oc1ccc(/C=C/c2cc(O)cc(O)c2)cc1 |  |  | Active | 
CC(=O)Oc1ccc2cc(-c3ccccc3)c(=O)oc2c1 |  | Active | inactive | 
CC(=O)Oc1ccc2cc(-c3cccc(Br)c3)c(=O)oc2c1 |  | Active | inactive | inhibition at 1 µM (T47D [4]): 20%; inhibition at 100 µM (T47D [5]): 18%; inhibition at 10 µM (T47D [6]): 60%; inhibition (T47D [7]): Active; inhibition at 10 µM (T47D [8]): 8%
